Data on 3 molecules can be found in paper PMC5598064 (Cardiovascular Diabetology, 2017).

Where two headings read alike, the source gives them in different places.

Data set [1] relates to healthy individuals. The note with it: for concentration-dependent effect on QTcP: in vivo. The text has this:
(§1) In a randomized, double-blind, 4-period, 4-treatment, cross-over tQTc study, healthy individuals were randomized to one of four treatment sequence groups. […] Serial blood samples for pharmacokinetic analysis were collected on day 4 of each period.
To account for the high degree of correlation between heart rate and QT interval, various correction formulae, including Bazett’s formula (QTcB), Fridericia’s formula (QTcF), QT interval corrected for heart rate (QTc) based on linear population-based analysis (QTcP), and QT interval corrected for heart rate based on log-linear population-based analysis (QTcLogP) were applied to obtain a QT interval independent of heart rate.

The subject of a further data set is monkeys. The note with it: monkey, in vivo.
The subject of data set [2] is healthy individuals. The note with it: in vivo, po. On the procedure: (§2) Participants who were randomized to 75 or 100 mg received their second dose 30 min before consuming the high fat breakfast. Vital sign and 12-lead electrocardiogram (ECG) measurements were collected at screening, at various times throughout the study, and at discharge.
The target of a further data set is GABA-A α1B2γ2 (Homo sapiens, UniProt P14867+P18507+P47870). As to the kind of experiment: Radioligand binding, cardiovascular-related targets.
GABA-A α1B2γ2, sequence (P14867 28-456): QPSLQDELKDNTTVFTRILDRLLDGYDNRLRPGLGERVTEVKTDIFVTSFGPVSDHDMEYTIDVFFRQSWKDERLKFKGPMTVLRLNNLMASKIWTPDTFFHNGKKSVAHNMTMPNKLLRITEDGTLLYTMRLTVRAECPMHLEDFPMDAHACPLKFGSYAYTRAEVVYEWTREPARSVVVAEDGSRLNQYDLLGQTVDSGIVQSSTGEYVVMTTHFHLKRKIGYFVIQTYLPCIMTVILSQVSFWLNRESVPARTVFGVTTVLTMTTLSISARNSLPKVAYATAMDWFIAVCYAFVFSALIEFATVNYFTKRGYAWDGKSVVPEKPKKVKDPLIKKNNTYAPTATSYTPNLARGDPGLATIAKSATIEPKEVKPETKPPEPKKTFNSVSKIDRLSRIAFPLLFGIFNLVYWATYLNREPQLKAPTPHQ
GABA-A α1B2γ2, sequence (P47870 25-512 limits assumed): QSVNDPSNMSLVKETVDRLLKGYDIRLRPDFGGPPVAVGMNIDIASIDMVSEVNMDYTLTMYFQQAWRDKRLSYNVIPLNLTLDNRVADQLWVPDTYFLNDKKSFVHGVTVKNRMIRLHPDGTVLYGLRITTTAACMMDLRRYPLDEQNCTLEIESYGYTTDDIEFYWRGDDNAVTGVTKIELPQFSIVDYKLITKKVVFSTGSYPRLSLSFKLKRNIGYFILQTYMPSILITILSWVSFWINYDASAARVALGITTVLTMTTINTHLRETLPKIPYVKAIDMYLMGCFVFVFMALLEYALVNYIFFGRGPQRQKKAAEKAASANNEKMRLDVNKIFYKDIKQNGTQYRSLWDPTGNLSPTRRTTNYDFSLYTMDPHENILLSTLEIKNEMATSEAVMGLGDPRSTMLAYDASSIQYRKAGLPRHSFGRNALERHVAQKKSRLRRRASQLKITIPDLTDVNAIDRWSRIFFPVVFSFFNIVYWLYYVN
GABA-A α1B2γ2, sequence (P18507 40-475): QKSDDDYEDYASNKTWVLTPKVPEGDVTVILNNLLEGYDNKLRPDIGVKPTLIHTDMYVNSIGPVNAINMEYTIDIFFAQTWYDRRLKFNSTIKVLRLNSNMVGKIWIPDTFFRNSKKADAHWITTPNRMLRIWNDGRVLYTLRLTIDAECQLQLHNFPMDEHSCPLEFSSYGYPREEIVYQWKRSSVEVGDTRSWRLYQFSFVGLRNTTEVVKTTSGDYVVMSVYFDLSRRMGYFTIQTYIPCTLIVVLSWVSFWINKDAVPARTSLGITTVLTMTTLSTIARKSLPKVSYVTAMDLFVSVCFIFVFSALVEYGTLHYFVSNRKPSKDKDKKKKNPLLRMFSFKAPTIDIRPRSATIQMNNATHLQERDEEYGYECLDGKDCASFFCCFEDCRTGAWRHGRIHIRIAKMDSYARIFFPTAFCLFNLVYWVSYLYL
Another data set has as its target L type Ca^2+. The description is as above. The settings on record: antagonism of radioligand binding; read-out: IC50 or EC50.
Another data set relates to rodents and non-rodents. The settings on record: in vivo, po.
In data set [3] the test system is receptors, ion channels, and enzymes. Put plainly: Radioligand binding panel, all targets assessed. The settings on record: 10 μM.
For the next data set, the system named is dogs. The settings on record: dog, in vivo.
Another data set addresses T1, Muscarinic M2 (Homo sapiens, UniProt P08172).
T1 sequence (P08172 1-466): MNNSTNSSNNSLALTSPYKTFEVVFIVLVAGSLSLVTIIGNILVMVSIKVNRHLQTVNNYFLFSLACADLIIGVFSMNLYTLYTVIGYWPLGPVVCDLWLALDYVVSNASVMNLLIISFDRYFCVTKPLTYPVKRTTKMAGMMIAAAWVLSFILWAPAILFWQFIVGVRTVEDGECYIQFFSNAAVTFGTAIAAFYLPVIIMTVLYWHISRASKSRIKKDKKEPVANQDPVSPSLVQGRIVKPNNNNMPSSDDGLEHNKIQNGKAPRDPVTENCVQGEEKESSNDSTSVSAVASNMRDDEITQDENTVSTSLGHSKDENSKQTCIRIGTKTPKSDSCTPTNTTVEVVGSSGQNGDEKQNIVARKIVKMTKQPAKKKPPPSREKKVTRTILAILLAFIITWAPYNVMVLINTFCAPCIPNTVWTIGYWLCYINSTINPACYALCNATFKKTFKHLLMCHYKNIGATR
Put plainly: Radioligand binding, cardiovascular-related targets.

The target of the next data set is ACE. The data set is described as above.
ACE, sequence (P22303 32-614, species assumed): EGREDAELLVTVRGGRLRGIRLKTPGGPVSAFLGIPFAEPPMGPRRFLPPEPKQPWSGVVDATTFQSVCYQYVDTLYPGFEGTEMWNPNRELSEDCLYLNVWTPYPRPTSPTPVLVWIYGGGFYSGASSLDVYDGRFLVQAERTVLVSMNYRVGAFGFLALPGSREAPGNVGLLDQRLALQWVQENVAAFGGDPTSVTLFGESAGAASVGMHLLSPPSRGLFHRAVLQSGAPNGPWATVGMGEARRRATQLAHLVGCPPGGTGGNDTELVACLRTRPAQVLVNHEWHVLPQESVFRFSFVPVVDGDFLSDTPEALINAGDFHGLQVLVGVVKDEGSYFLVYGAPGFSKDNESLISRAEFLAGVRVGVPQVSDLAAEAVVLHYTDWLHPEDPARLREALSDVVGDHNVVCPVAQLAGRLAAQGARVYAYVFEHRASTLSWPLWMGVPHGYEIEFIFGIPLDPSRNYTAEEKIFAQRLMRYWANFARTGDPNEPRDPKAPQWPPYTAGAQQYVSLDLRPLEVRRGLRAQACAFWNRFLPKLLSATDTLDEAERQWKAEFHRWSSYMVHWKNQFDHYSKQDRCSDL
The next data set concerns rabbit Purkinje fibers. The settings on record: mean (SEM).
In a further data set the target is T2, Adrenergic α1β (Homo sapiens, UniProt P35368).
T2 sequence (P35368 1-520): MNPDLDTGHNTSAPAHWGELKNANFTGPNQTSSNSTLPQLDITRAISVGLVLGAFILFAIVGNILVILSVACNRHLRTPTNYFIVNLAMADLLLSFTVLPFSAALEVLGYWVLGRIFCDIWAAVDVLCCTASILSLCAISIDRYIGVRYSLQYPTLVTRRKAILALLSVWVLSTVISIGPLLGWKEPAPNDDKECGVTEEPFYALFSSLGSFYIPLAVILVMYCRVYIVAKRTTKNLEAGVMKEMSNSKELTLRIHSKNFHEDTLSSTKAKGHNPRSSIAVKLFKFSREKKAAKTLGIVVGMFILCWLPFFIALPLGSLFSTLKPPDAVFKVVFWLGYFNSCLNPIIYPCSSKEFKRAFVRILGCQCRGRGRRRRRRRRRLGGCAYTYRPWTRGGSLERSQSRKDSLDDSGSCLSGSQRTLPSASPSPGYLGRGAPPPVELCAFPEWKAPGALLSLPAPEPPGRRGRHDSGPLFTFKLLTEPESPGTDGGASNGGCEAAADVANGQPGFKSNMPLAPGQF
As to the kind of experiment: Radioligand binding, cardiovascular-related targets.

Data set [4] has as its system healthy participants and patients with T2D. The note with it: human, in vivo. On the procedure: as §2
(§3) All doses were administered 1 h before consumption of a standard American Heart Association Step 1 diet (≤30% of calories from fats) or a standard liquid meal on days 8 and 13 (BoostPlus®; Nestlé). […] Vital sign and 12-lead ECG measurements were collected at screening, at various times throughout the study, and at discharge. Multiple blood samples for pharmacokinetic analysis were collected on days 1–2 and 14–15.
as §1
In a randomized, placebo-controlled, sequential MAD study, 40 patients with T2D were randomized to receive 2.5, 5, 15, 30, or 50 mg/day or matching placebo for 14 days. All doses were administered after consumption of a standard breakfast. […] Vital sign measurements and 12-lead ECG measurements were collected at screening, at various times throughout the study, and at discharge. Serial blood samples for pharmacokinetic analysis were collected on days 1, 7, and 14.

In the next data set the target is Cardiac hNAV1.5 (Homo sapiens, UniProt Q14524). As to the kind of experiment: Radioligand binding, cardiovascular-related targets.
Cardiac hNAV1.5, sequence (Q14524 whole entry): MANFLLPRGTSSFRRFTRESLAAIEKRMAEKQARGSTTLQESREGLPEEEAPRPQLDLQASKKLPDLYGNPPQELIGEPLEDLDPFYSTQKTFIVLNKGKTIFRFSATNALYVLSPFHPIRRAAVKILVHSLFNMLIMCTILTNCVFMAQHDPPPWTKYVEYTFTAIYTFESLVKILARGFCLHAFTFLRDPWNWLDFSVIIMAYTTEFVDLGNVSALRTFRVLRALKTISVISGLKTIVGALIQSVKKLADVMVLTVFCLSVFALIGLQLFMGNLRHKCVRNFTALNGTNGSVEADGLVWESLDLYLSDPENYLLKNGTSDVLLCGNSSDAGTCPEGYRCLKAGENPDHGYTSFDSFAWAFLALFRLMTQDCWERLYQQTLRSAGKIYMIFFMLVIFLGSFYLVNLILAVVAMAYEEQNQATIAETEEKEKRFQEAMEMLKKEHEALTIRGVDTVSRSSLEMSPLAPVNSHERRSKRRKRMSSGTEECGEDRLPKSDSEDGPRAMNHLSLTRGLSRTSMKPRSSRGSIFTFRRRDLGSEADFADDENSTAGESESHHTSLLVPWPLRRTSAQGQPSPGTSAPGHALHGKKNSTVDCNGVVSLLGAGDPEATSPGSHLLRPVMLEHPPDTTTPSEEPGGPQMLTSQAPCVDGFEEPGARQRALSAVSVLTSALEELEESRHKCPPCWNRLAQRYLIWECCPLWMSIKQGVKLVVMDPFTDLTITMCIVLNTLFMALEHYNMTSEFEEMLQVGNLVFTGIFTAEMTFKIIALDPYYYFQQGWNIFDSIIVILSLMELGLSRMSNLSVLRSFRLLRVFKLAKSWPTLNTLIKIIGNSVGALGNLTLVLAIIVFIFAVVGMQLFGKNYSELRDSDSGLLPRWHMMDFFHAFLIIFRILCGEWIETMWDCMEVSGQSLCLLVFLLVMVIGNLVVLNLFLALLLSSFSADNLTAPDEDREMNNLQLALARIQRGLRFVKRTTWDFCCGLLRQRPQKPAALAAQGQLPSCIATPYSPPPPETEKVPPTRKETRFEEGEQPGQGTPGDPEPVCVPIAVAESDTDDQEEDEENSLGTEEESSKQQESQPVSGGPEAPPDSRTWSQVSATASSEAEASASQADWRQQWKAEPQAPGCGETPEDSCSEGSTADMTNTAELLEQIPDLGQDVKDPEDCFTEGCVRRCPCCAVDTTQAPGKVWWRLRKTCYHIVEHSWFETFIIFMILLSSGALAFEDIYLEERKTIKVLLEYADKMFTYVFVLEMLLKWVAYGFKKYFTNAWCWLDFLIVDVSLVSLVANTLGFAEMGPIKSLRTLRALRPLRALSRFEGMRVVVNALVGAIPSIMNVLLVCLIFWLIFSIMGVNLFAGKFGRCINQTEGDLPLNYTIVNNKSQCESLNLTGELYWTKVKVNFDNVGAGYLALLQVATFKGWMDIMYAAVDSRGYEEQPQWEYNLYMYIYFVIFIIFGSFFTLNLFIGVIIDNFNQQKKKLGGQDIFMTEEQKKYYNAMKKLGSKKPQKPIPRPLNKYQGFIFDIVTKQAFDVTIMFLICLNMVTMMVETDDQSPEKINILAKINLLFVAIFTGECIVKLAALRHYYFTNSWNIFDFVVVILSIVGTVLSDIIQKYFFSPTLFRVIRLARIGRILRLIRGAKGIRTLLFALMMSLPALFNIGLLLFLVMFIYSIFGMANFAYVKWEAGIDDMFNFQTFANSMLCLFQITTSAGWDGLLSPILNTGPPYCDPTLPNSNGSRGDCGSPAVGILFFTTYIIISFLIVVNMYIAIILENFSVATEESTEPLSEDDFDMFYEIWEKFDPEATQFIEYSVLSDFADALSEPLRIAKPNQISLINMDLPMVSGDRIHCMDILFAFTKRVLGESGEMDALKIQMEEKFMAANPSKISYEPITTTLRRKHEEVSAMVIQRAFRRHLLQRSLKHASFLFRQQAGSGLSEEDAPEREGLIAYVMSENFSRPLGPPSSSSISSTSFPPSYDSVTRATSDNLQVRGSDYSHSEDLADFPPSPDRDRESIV
In data set [5] the target is PDE (phosphodiesterase-3). Described as above. The note with it: antagonism of radioligand binding; read-out: IC50 or EC50.
The next data set deals with dog. The note with it: in vivo, iv, 5.9 mg/kg.
A further data set deals with rat. The note with it: in vivo, iv, 5.9 mg/kg.
Data set [6] has as its system healthy individuals. The note with it: in vivo. The procedure: as §3
For data set [7] the following is noted: healthy individuals, saxagliptin 5 mg, highest recommended therapeutic dose; cited from earlier work.

For `COc1c(N2C[C@@H]3CCCN[C@@H]3C2)c(F)cc2c(=O)c(C(=O)O)cn(C3CC3)c12` [moxifloxacin], in the data set on healthy individuals [1] (400 mg, 4 h after dosing), the “maximum placebo-adjusted, time-matched change from baseline in QTcP” value is on record as 12.52 ms and the “one-sided lower 95% confidence bound of QTcP change at time of maximum effect” value is listed as 7.83 ms. Further, the “individuals with QTcP change from baseline >30 ms” value in the data set with healthy individuals [1] (after treatment with placebo and moxifloxacin) is listed as 1.

A word on the IC50: it is the concentration that gives 50% inhibition. For the molecule `N#C[C@@H]1C[C@@H]2C[C@@H]2N1C(=O)[C@@H](N)C12CC3CC(CC(O)(C3)C1)C2` [saxagliptin], in the data set on monkeys (3.4 mg/kg), the “Cmax exposure multiple of Cmax at the 5 mg oral human dose” value came out at 280 times. Moreover, the adverse effects result in the data set with monkeys (iv, 0.225 mg/kg) was “No adverse effects”. Further, in the data set with monkeys (iv, 3.4 mg/kg), the “decreased blood pressure (reductions)” value is given as less than 40 mmHg. Also, the “dose excreted (renal excretion)” value in the data set with healthy individuals [2] (human) is reported as “approximately 20%”. Further, in the data set with healthy individuals [2], the “mean renal clearance versus mean GFR” value was “exceeded mean GFR” and the “plasma exposures versus dose” value is listed as “generally increased proportionally with dose”. At GABA-A α1B2γ2, this molecule displayed a half-inhibitory concentration (IC50) greater than 30 µM. Also, the concentration for half-maximal inhibition (IC50) at L type Ca^2+ was greater than 25 µM. In addition, the “multiples of human exposures based on AUC” value in the data set with rodents and non-rodents is “up to 2200 times”. For the same molecule, in the data set with healthy individuals [1], the “concentration-dependent effect on QTcP” value is “no concentration-dependent effect”. In addition, the “inhibition on any targets assessed” value in data set [3] is less than 25%. Moreover, the heart weight result with dogs is reported as “No increase”. Moreover, the “Cmax exposure multiple of the 5 mg clinical dose” value in the data set with dogs (po) was no more than 750 times. Also, the IC50 at Muscarinic M2 was greater than 30 µM. Also, the IC50 on ACE is greater than 60 µM. In the data set on rabbit Purkinje fibers (3 μM), the APD50 was 149 (24) ms, the “APD50 % Change” value is recorded as 0 (0) %, the APD90 is 235 (11) ms and the “APD90 % Change” value is recorded as 2 (1) %. For the same molecule, in the data set with rabbit Purkinje fibers (3 μM), the “Maximum upstroke velocity (Vmax)” value is recorded as 446 (15) v/s, the “Maximum upstroke velocity (Vmax) % Change” value is reported as −5 (3) %, the Overshoot is reported as 29 (4) mV and the “Overshoot % Change” value is −7 (12) %. In the data set with rabbit Purkinje fibers (3 μM), the “Resting Membrane Potential” value is −84 (1) mV and the “Resting Membrane Potential % Change” value is recorded as 0 (1) %. In addition, in the data set with rabbit Purkinje fibers (10 μM), the APD50 was 153 (26) ms, the “APD50 % Change” value is on record as 2 (1) %, the APD90 is on record as 237 (14) ms and the “APD90 % Change” value was 2 (1) %. In the data set on rabbit Purkinje fibers (10 μM), the “Maximum upstroke velocity (Vmax)” value is 462 (21) v/s, the “Maximum upstroke velocity (Vmax) % Change” value was −2 (3) %, the Overshoot is on record as 32 (4) mV and the “Overshoot % Change” value is 1 (11) %. Besides, in the data set with rabbit Purkinje fibers (10 μM), the “Resting Membrane Potential” value is on record as −86 (1) mV and the “Resting Membrane Potential % Change” value is given as 2 (2) %. Besides, in the data set on rabbit Purkinje fibers (30 μM), the APD50 is reported as 152 (21) ms, the “APD50 % Change” value is given as 3 (4) %, the APD90 was 239 (11) ms and the “APD90 % Change” value is on record as 3 (2) %. Besides, in the data set on rabbit Purkinje fibers (30 μM), the “Maximum upstroke velocity (Vmax)” value is reported as 437 (13) v/s, the “Maximum upstroke velocity (Vmax) % Change” value is recorded as −7 (5) %, the Overshoot was 29 (5) mV and the “Overshoot % Change” value was −7 (14) %. Further, in the data set on rabbit Purkinje fibers (30 μM), the “Resting Membrane Potential” value is listed as −85 (2) mV and the “Resting Membrane Potential % Change” value is on record as 1 (3) %. The IC50 at Adrenergic α1β was greater than 30 µM. In [4], the “effect on vital sign measurements” value is recorded as “no effect” and the “marked abnormalities in AST” value was “No marked abnormalities”. Further, on Cardiac hNAV1.5, the IC50 is greater than 30 µM. In [5], the IC50 is greater than 30 µM. The adverse effects result with dog is reported as “no adverse effects”. Further, in the data set on rat, the adverse effects result is listed as “no adverse effects”.

With 5-hydroxy saxagliptin, in the data set on healthy individuals [2], the “dose excreted (renal excretion)” value is reported as roughly 40%, the “mean renal clearance versus mean GFR” value is recorded as “did not exceed mean GFR” and the “plasma exposures versus dose” value is listed as “generally increased proportionally with dose”. In addition, in the data set with healthy individuals [1], the “concentration-dependent effect on QTcP” value is given as “no concentration-dependent effect”. Further, in the data set with healthy individuals [6], the pharmacokinetics versus dose result was “appeared linear with respect to dose”. In addition, the maximum plasma concentration in [7] is 0.047 µg/mL.
